The values below are quoted from earlier work in US20100256576A1, “Disinfectant Compositions, Methods and Systems” (TYCO HEALTHCARE GROUP LP, priority 2009, published 2010).

Each structure is given as a SMILES string.

For this data set the following is noted: up to 3000 mg infused over 3 hours, daily, humans with hypercalcemia.

Take `O=C([O-])CN(CCN(CC(=O)[O-])CC(=O)O)CC(=O)O.[Na+].[Na+]` [EDTA, Disodium EDTA]: the “tolerability of infused dose” value is reported as “well tolerated”.
